Consider 11 compounds from ChEMBL document CHEMBL1201862, “PubChem BioAssay data set” (2004).

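Where inhibition never reached the appropriate level, the endpoint shown equals the highest concentration tested. Otherwise, values were interpolated linearly from a five-concentration, 48-hour dose response in 96-well plates. The concentration for 50% growth inhibition is given as GI50.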 Calls of active or inactive are those of the source. Rule as the data show it: active = GI50 up to about 1.1 µM and inactive = higher.

Common to all, as to assay: inhibition of tumour cell growth, NCI panel, 48 h
Assay [1] concerns A498.
Assay [2] has as its system SW-620.
Assay [3] concerns A549.
Assay [4] has as its system MCF7.
Assay [5] concerns SK-MEL-5.
The test system of assay [6] is SK-MEL-2.
For assay [7], the system named is NCI/ADR-RES.
Assay [8] deals with RPMI-8226.
Assay [9] relates to RXF 393.
Assay [10] relates to UO-31.
Assay [11] relates to MDA-MB-231.
Assay [12] relates to SF-268.
Assay [13] deals with PC-3.
The test system of assay [14] is LOX IMVI.
For assay [15], the system named is IGROV-1.
In assay [16] the test system is K562.
Assay [17] deals with OVCAR-5.
For assay [18], the system named is HCT-15.
Assay [19] concerns NCI-H460.

Turning to `O=C(NCCCNC(=O)c1ccc2c(O)c(O)ccc2c1)c1ccc2c(O)c(O)ccc2c1`, the GI50 was > 48.3 µM (inactive) in [1]; 25.5 µM (inactive) in assay [2]; 32.3 µM (inactive) in assay [3]; 10.5 µM (inactive) in [4]; 20.3 µM (inactive) in assay [5]; 35.3 µM (inactive) in assay [6]. Further, the GI50 in assay [7] is 38.1 µM (inactive); in assay [8], 39.7 µM (inactive); in assay [9] it was 27.3 µM (inactive); in assay [10] it was 26.6 µM (inactive); in assay [11] it was 29.6 µM (inactive); in assay [12], 22.9 µM (inactive). Moreover, the GI50 in [13] was 47.1 µM (inactive); in assay [14] it was 9.57 µM (inactive); in assay [15] it was 18.8 µM (inactive); in [16], 19.1 µM (inactive); in assay [17] it was 29.1 µM (inactive); in assay [18], 27.6 µM.
Take `O=C1c2ccccc2-n2c1nc1ccc(Cl)cc1c2=O`: the GI50 in [1] was > 100 µM (inactive); in assay [2], > 100 µM (inactive); in [3] it was 26.1 µM (inactive); in [4], 83.9 µM (inactive); in [5], > 100 µM (inactive); in assay [6] it was 89.9 µM (inactive). The GI50 was > 100 µM (inactive) in assay [7]; 1.36 µM (inactive) in assay [8]; 3.48 µM (inactive) in assay [9]; 59.4 µM (inactive) in assay [10]; 62.1 µM (inactive) in assay [11]; > 100 µM (inactive) in assay [13]. In addition, the GI50 in [14] was > 100 µM (inactive); in [15], 78.2 µM (inactive); in assay [16] it was 14.3 µM (inactive); in assay [19], > 100 µM (inactive); in [17], > 100 µM (inactive); in assay [18], 56.1 µM.
For the compound `CC1(C)S[C@H](CN)N[C@H]1C(=O)OC(c1ccccc1)c1ccccc1`, the GI50 was 20 µM (inactive) in assay [1]; 43.6 µM (inactive) in assay [2]; 42.2 µM (inactive) in [3]; 61.9 µM (inactive) in [4]; 17.2 µM (inactive) in assay [5]; 27.7 µM (inactive) in [6]. The GI50 was > 100 µM (inactive) in [7]; 21.6 µM (inactive) in assay [8]; 63.5 µM (inactive) in assay [9]; 22.3 µM (inactive) in assay [10]; 35.2 µM (inactive) in assay [11]; 88.1 µM (inactive) in assay [12]. Moreover, the GI50 in assay [13] was 25.5 µM (inactive); in [14], 17.4 µM (inactive); in assay [15], 37.4 µM (inactive); in assay [16] it was 22.9 µM (inactive); in assay [17], 60.8 µM (inactive); in assay [18], 36.1 µM.
For `CN(C)C(=O)C(F)(F)C(c1ccc(C(F)(F)F)cc1)C1C(=O)N(C)C(=O)N(C)C1=O` (configuration not stated), the GI50 in assay [1], in assay [2], in assay [3], in assay [4], in assay [5] and in assay [6] was > 100 µM (inactive) each time. The GI50 in assay [7] is > 100 µM (inactive); in assay [8], > 100 µM (inactive); in assay [9], 78.3 µM (inactive); in assay [10] it was > 100 µM (inactive); in assay [11], > 100 µM (inactive); in assay [12], > 100 µM (inactive). Moreover, the GI50 in assay [13] was > 100 µM (inactive); in assay [14] it was > 100 µM (inactive); in assay [19], > 100 µM (inactive); in assay [17] it was > 100 µM (inactive); in assay [18] it was above 100 µM.
Turning to `O=C1CSC(c2ccc([N+](=O)[O-])cc2)N1c1nc(-c2ccc3c(c2)CCCC3)cs1` (configuration not stated), the GI50 in assay [1] was > 100 µM (inactive); in assay [2], > 100 µM (inactive); in assay [4], 31.7 µM (inactive); in assay [5], 51.1 µM (inactive); in assay [6], 39.5 µM (inactive); in assay [7], > 100 µM (inactive). Also, the GI50 in assay [8] is > 100 µM (inactive); in assay [9], > 100 µM (inactive); in assay [10], > 100 µM (inactive); in [11], 70.1 µM (inactive); in assay [12], > 100 µM (inactive); in assay [13], > 100 µM (inactive). For the same compound, the GI50 in assay [14] is 25.1 µM (inactive); in assay [15] it was 25.1 µM (inactive); in assay [16], > 100 µM (inactive); in [19], > 100 µM (inactive); in assay [17] it was > 100 µM (inactive); in [18], above 100 µM.
As for `CCOC(=O)Cn1nc2ccc(Nc3c(C)[n+]([O-])c4cc(F)c(OCC)cc4[n+]3[O-])cc2n1`, the GI50 is > 100 µM (inactive) in [1]; > 100 µM (inactive) in assay [2]; > 100 µM (inactive) in [4]; > 100 µM (inactive) in [5]; 16.8 µM (inactive) in assay [6]; > 100 µM (inactive) in [7]. Moreover, the GI50 in assay [8] was > 100 µM (inactive); in assay [9] it was 20.7 µM (inactive); in [10], > 100 µM (inactive); in assay [11], 46.8 µM (inactive); in assay [12], 50.9 µM (inactive); in assay [13] it was > 100 µM (inactive). Also, the GI50 is > 100 µM (inactive) in assay [14]; > 100 µM (inactive) in assay [15]; > 100 µM (inactive) in assay [16]; > 100 µM (inactive) in assay [19]; > 100 µM (inactive) in assay [17]; above 100 µM in assay [18].
`CC(C)(C)C1=NC(=P(c2ccccc2)(c2ccccc2)c2ccccc2)C(=O)O1`: the GI50 in assay [1], in assay [2], in assay [3], in [4], in assay [5] and in [6] was > 100 µM (inactive) in each case. For the same compound, the GI50 in assay [7], in [8], in assay [9], in [10], in assay [11] and in assay [12] was > 100 µM (inactive) in each case. In addition, the GI50 in [13], in [14], in assay [15], in assay [16] and in assay [17] was > 100 µM (inactive) each time.
Regarding `CCOC(=O)C1C(C(C)C)C2(C#N)C(=N)OC1(C)C2(C#N)C#N` (configuration not stated), the GI50 was > 100 µM (inactive) in [1]; 62.1 µM (inactive) in [2]; > 100 µM (inactive) in [3]; 59.4 µM (inactive) in assay [4]; 30.5 µM (inactive) in assay [5]; 58.9 µM (inactive) in [6]. In addition, the GI50 in assay [7] is 45.5 µM (inactive); in [8], 32.8 µM (inactive); in assay [9], 36.3 µM (inactive); in assay [10], > 100 µM (inactive); in [11], > 100 µM (inactive); in [12], > 100 µM (inactive). In addition, the GI50 is > 100 µM (inactive) in [13]; 43.3 µM (inactive) in assay [14]; 88.3 µM (inactive) in assay [15]; 30.8 µM (inactive) in [16]; > 100 µM (inactive) in assay [17]; 49.3 µM in assay [18].
Turning to `O=c1oc2ccccc2cc1P(=O)(O)O`, the GI50 in assay [1], in [2], in assay [3], in assay [4], in assay [5] and in assay [6] was > 100 µM (inactive) throughout. Further, the GI50 in assay [7], in assay [8], in assay [9], in assay [11], in assay [12] and in assay [13] was > 100 µM (inactive) in each case. The GI50 in assay [14] was > 100 µM (inactive); in [15] it was > 100 µM (inactive); in [16], > 100 µM (inactive); in assay [19], > 100 µM (inactive); in [17] it was > 100 µM (inactive); in [18], above 100 µM.
In the case of `CCOC(=O)C1=CCOc2cc(N(C)C)ccc21`, the GI50 in assay [1] was > 100 µM (inactive); in assay [2], > 100 µM (inactive); in assay [3], > 100 µM (inactive); in assay [4] it was > 100 µM (inactive); in [5] it was > 100 µM (inactive); in [6], 75 µM (inactive). The GI50 in assay [7] was > 100 µM (inactive); in [8], > 100 µM (inactive); in assay [9], > 100 µM (inactive); in assay [10] it was > 100 µM (inactive); in assay [11] it was > 100 µM (inactive); in [12], 97.5 µM (inactive). For the same compound, the GI50 in assay [13] was > 100 µM (inactive); in [14] it was > 100 µM (inactive); in assay [15], > 100 µM (inactive); in assay [16], 26.9 µM (inactive); in assay [19] it was > 100 µM (inactive); in assay [18], above 100 µM.
With `Cc1csc2c1-n1cccc1C2=O`, the GI50 was 36 µM (inactive) in [1]; > 100 µM (inactive) in assay [2]; > 100 µM (inactive) in assay [3]; > 100 µM (inactive) in [4]; > 100 µM (inactive) in assay [5]; > 100 µM (inactive) in assay [6]. Further, the GI50 in [7] is > 100 µM (inactive); in assay [8], > 100 µM (inactive); in [9] it was 98.4 µM (inactive); in assay [10], 43.3 µM (inactive); in assay [11] it was > 100 µM (inactive); in assay [12] it was > 100 µM (inactive). The GI50 in [13], in assay [14], in assay [15], in assay [16], in [19] and in assay [17] was > 100 µM (inactive) throughout. The GI50 in assay [18] is above 100 µM.
